Data on 13 compounds can be found in ChEMBL document CHEMBL4622940, “Synthesis and dopamine receptor pharmacological evaluations on ring C ortho halogenated 1-phenylbenzazepines” (Bioorg Med Chem Lett, 2020).

Active and inactive are the calls of the source. The rule behind the calls is not given here.

The target of assay [1] is T1, D(2) dopamine receptor (Homo sapiens, UniProt P14416). Kind of assay: Displacement of [3H]N-methylspiperone from dopamine D2 receptor (unknown origin) at 10 uM relative to control. In general terms: Loss of bound radioactivity is the signal in a displacement assay; it reports binding, not function.
T1 sequence (P14416 whole entry): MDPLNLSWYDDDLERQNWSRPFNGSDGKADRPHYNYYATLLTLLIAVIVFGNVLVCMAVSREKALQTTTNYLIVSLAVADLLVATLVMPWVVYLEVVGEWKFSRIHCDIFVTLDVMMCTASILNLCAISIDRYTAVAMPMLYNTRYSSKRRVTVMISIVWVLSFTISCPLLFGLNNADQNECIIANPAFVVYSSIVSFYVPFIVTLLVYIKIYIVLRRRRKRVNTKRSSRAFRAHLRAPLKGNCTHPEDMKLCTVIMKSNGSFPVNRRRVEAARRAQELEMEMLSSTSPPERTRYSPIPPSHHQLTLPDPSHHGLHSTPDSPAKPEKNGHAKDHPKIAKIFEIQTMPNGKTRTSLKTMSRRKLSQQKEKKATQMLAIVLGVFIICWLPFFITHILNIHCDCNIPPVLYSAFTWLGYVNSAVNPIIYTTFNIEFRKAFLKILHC
The target in assay [2] is T2, D(1A) dopamine receptor (Homo sapiens, UniProt P21728). The experiment in a line: Displacement of [3H]SCH23390 from dopamine D1 receptor (unknown origin).
T2 sequence (P21728 whole entry): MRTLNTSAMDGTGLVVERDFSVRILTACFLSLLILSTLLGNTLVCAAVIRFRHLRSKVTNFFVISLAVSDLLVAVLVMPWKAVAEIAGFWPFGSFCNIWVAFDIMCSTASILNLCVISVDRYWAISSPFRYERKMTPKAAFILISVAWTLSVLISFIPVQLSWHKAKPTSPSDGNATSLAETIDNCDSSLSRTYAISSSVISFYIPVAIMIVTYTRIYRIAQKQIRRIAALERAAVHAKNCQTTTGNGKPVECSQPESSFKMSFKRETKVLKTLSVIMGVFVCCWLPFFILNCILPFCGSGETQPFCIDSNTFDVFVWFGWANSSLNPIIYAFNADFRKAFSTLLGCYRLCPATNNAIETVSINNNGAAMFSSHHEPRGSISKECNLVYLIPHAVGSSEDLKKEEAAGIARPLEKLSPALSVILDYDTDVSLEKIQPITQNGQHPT
The next assay is filed under the species Homo sapiens. The experiment in a line: Selectivity index, ratio of Ki for displacement of [3H]SCH23390 from dopamine D5 receptor (unknown origin) to Ki for displacement of [3H]SCH23390 from dopamine D1 receptor (unknown origin).
The target of assay [3] is T2, D(1A) dopamine receptor. The experiment in a line: Agonist activity at human dopamine D1 receptor expressed in CHO-K1 cells by cAMP Hunter assay. The class given is functional, cell-based.
In the next assay the target is D(1B) dopamine receptor (Homo sapiens, UniProt P21918). The experiment in a line: Displacement of [3H]SCH23390 from dopamine D5 receptor (unknown origin).
Sequence of D(1B) dopamine receptor (P21918 whole entry): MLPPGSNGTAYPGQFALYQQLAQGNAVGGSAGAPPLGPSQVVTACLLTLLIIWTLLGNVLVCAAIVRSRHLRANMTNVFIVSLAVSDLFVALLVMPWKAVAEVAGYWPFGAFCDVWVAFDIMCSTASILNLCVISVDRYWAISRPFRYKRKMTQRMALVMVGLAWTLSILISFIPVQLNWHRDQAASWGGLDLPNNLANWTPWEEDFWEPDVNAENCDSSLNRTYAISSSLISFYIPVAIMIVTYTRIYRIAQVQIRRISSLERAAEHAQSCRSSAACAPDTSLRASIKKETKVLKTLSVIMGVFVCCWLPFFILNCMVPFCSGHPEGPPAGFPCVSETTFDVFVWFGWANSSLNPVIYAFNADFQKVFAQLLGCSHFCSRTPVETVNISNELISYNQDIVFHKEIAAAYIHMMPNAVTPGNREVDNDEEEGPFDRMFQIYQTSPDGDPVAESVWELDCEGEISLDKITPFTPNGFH
The target of assay [4] is T2, D(1A) dopamine receptor. Kind of assay: Antagonist activity at human dopamine D1 receptor expressed in CHO-K1 cells by cAMP Hunter assay. The class given is functional, cell-based.
The target of assay [5] is T1, D(2) dopamine receptor. Kind of assay: Displacement of [3H]N-methylspiperone from dopamine D2 receptor (unknown origin).

Compound `COc1cc2c(cc1O)C(c1ccccc1Cl)CN(C)CC2` (stereo not drawn) displayed an inhibition on D(2) dopamine receptor [1] below 50%. Further, the Ki on D(1A) dopamine receptor [2] stood at 14 nM; on D(1B) dopamine receptor it was 46.4 nM. Besides, the Ratio Ki in the assay listed under Homo sapiens amounted to 3. Moreover, on D(1A) dopamine receptor [3], the outcome was inactive. The same compound gave an IC50 against D(1A) dopamine receptor [4] of 9.4 nM.
Regarding `COc1cc2c(cc1O)C(c1ccccc1Cl)CNCC2` (stereo not drawn), the inhibition on D(2) dopamine receptor [1] was below 50%. Further, the Ki at D(1A) dopamine receptor [2] is 147 nM; at D(1B) dopamine receptor, 483 nM. Further, the Ratio Ki in the assay filed under Homo sapiens was below 3.
Consider `COc1cc2c(cc1O)C(c1ccccc1Br)CN(C)CC2` (stereo not drawn), for which the inhibition at D(2) dopamine receptor [1] was below 50%. In addition, the results for the inhibition constant (Ki) on D(1A) dopamine receptor [2] and on D(1B) dopamine receptor were 16 nM and 47 nM, respectively. Also, in the assay listed under Homo sapiens, the Ratio Ki came to 4.
On the same counts, the results for `C=CCN1CCc2cc(O)c(O)cc2C(c2ccccc2Br)C1` (stereo not drawn) are below 50%, 133 nM, 442 nM and 3 to 4.
In turn, `Oc1cc2c(cc1O)C(c1ccccc1Br)CNCC2` (stereo not drawn) displayed an inhibition at D(2) dopamine receptor [1] below 50%. Further, the Ki came out at 26 nM on D(1A) dopamine receptor [2] and 67 nM at D(1B) dopamine receptor.
At D(2) dopamine receptor [1], `C=CCN1CCc2cc(OC)c(O)cc2C(c2ccccc2Cl)C1` (stereo not drawn) had an inhibition below 50%. For the same compound, the Ki stood at 48.3 nM at D(1A) dopamine receptor [2] and 264 nM on D(1B) dopamine receptor.
With `COc1cc2c(cc1O)C(c1ccccc1)CNCC2` (stereo not drawn), the inhibition on D(2) dopamine receptor [1] is below 50%. For the same compound, the values for the Ki at D(1A) dopamine receptor [2] and at D(1B) dopamine receptor were 126 nM and 310 nM, respectively. The Ratio Ki in the assay filed under Homo sapiens was below 3.
The like results for `COc1cc2c(cc1O)C(c1ccccc1Br)CNCC2` (stereo not drawn) were, in that order, below 50%, 72 nM, 82 nM and below 3.
At D(2) dopamine receptor [1], `C=CCN1CCc2cc(OC)c(O)cc2C(c2ccccc2Br)C1` (stereo not drawn) registered an inhibition below 50%. Besides, the Ki on D(1A) dopamine receptor [2] is 41 nM; on D(1B) dopamine receptor, 501 nM.
`C=CCN1CCc2cc(OC)c(O)cc2C(c2c(Cl)cccc2Cl)C1` (stereo not drawn): the Ki at D(1A) dopamine receptor [2] came to 1040 nM; at D(1B) dopamine receptor, 479 nM; on D(2) dopamine receptor [5] it was 1510 nM.
Regarding `COc1cc2c(cc1O)C(c1c(Cl)cccc1Cl)CN(C)CC2` (stereo not drawn), on D(2) dopamine receptor [1], the inhibition is below 50%. Moreover, the Ki on D(1A) dopamine receptor [2] stood at 145 nM; at D(1B) dopamine receptor, 49.1 nM.
In turn, `CN1CCc2cc(O)c(O)cc2C(c2ccccc2Br)C1` (stereo not drawn) came in with an inhibition on D(2) dopamine receptor [1] below 50%. Besides, the Ki came out at 59.4 nM at D(1A) dopamine receptor [2] and 223 nM at D(1B) dopamine receptor. For the same compound, the Ratio Ki in the assay listed under Homo sapiens was in the range of 3 to 4.
Regarding `COc1cc2c(cc1O)C(c1c(Cl)cccc1Cl)CNCC2` (stereo not drawn), the inhibition on D(2) dopamine receptor [1] was below 50%. Besides, the results for the inhibition constant (Ki) on D(1A) dopamine receptor [2] and on D(1B) dopamine receptor were 76.1 nM and 25.4 nM, respectively.

For orientation: inhibition means the change of the read-out against control, counted positive when it falls. The term Ki denotes a measure of affinity in units of concentration, obtained from inhibition or displacement. A low value points to tighter binding. In general, IC50 refers to the point on the concentration scale where inhibition reaches its midpoint. Lower therefore signals greater potency in that assay.
